# Laboratory results as given in patent US12235275B2, “Fluorescent substrates for poly(ADP-ribosyl) hydrolases” (The Board of Trustees of the University of Illinois, priority 2018, dated 2025).
# T1: H. sapiens full length ARH3 (Homo sapiens, UniProt Q9NX46)
# T1 sequence (Q9NX46 1-363): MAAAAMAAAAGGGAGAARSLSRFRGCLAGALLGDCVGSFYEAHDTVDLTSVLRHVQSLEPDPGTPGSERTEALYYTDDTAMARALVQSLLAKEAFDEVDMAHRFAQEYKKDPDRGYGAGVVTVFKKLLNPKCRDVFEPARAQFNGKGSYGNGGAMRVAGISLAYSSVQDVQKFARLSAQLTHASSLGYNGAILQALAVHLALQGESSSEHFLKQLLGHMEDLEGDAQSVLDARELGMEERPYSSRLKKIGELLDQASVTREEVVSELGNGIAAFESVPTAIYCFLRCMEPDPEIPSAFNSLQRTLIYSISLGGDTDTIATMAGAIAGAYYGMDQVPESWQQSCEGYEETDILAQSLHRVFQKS
# T2: T. thermophila PARG (Tetrahymena thermophila, UniProt I6L8L7)
# T2 construct: made in house; host or cells: Rosetta2 (DE3) E. coli
# T2 sequence (I6L8L7 1-457): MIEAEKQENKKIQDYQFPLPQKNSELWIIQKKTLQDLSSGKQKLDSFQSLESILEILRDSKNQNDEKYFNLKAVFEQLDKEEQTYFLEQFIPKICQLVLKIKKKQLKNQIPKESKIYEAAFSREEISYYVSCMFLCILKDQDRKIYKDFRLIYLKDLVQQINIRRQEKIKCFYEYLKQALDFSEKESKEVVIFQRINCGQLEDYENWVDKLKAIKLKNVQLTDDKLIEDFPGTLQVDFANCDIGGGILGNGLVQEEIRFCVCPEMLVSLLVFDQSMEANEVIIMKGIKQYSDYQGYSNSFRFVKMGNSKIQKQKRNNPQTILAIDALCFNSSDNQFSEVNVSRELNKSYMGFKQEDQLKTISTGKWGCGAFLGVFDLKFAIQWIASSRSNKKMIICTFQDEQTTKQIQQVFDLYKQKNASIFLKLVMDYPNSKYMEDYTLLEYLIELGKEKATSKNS
# T3: ARH3 (Homo sapiens, UniProt Q9NX46)
# T3 sequence (Q9NX46 1-363): T1 sequence (Q9NX46 1-363)
# B1: H. sapiens full length ARH3 (Homo sapiens) (protein)
# chain: T1 sequence (Q9NX46 1-363)
# Legend:
# [1] = biological target: T1, H. sapiens full length ARH3; assay: In vitro enzyme kinetics of substrate hydrolysis
# [2] = biological target: T4, H. sapiens full length PARG (Homo sapiens, UniProt Q86W56); assay: In vitro enzyme kinetics of substrate hydrolysis; assay type: biochemical; settings: hPARG
# T4 construct: H. sapiens full length PARG; trigger factor (TF) fusion of the pColdTF vector; made in house; host or cells: Rosetta2 (DE3) E. coli
# [3] = leaving groups pNP and TFMU; cited from earlier work
# T. thermophila PARG = biological target: T2, T. thermophila PARG; assay type: biochemical; settings: ttPARG
# ARH3 [4] = assay: Substrate hydrolysis in lysate of ARH3 knockout U2OS cells; assay type: biochemical; settings: U2OS cell lysate, 200 μM substrate
# Experimental: (§1) The ability of TFMU-IDPr to selectively report on ARH3 activity within the cellular milieu would be an important application of these probes. […] First, the hydrolysis of TFMU-IDPr was evaluated in cell lysate from a ARH3 knockout isogenic cell line pair derived from U2OS cells. […] Second, substrate processing was evaluated in the presence of the selective PARG inhibitor PDD00017273. […] Taken together, these experiments indicate that TFMU-IDPr is selectively cleaved by ARH3 in cell lysate, and TFMU-ADPr is cleaved only by ARH3 and PARG.
# (§2) Cells were cultured in T75 flasks in appropriate medium. Cells were trypsinized, and scrapped (if necessary), and counted. 1×10^6 cells were harvested and washed with cold PBS 2×. Cell pellet was lysed by addition of activity lysis buffer (150 μL) and incubated on ice for 30 min. Lysate was clarified by centrifugation at 14,300×g at 4° C. for 10 min. Supernatant was transferred to chilled, empty 500 μL tube. Total protein content of lysate was evaluated by BCA assay. ARH3 expression level was determined by western blotting analysis. 5 μL lysate was added to well of 384-well black plate. 45 μL TFMU-IDPr (200 μM final) in reaction buffer was added to well. Reaction progress was monitored by fluorescent plate reader (ex 385 nm, cutoff 495, em 502 nm, 6 reads/well, high gain).
# PARG [5] = biological target: T5, PARG (Homo sapiens, UniProt Q86W56); assay: In vitro inhibition of PARG; assay type: biochemical; set-up: H. sapiens full length PARG; trigger factor (TF) fusion of the pColdTF vector; made in house; host or cells: Rosetta2 (DE3) E. coli; settings: dose-response, FIG. 4C
# PARG [6] = biological target: T5, PARG; assay: Substrate hydrolysis in U2OS cell lysate in presence of PARG inhibitor PDD00017273; assay type: biochemical; set-up: endogenous in cells; host or cells: U2OS (parental and ARH3 knockout) lysate
# Experimental: as §1, §2
# ARH3 [7] = biological target: T3, ARH3; assay: In vitro inhibition of purified ARH3; assay type: biochemical; set-up: H. sapiens full length ARH3; His6 (N); made in house; host or cells: Rosetta2 (DE3) E. coli; settings: mixture of anomers
# ARH3 [8] = assay: Cell lysate ARH3 activity assay (survey of cell lines, TFMU-IDPr hydrolysis); assay type: biochemical; settings: MEF cell lysate, 200 μM TFMU-IDPr
# Experimental: as §2, with “ARH3 expression level was determined by western blotting analysis. 5 μL lysate was added to well of 384-well black plate. 45 μL TFMU-IDPr (200 μM final) in reaction buffer was added to well.” left out
# ARH3 [9] = biological target: T3, ARH3; assay: as above; assay type: biochemical; set-up: endogenous in cells; settings: 200 μM TFMU-IDPr
# Experimental: as §2, with “ARH3 expression level was determined by western blotting analysis. 5 μL lysate was added to well of 384-well black plate. 45 μL TFMU-IDPr (200 μM final) in reaction buffer was added to well.” left out
# [10] = substrate: O=c1cc(C(F)(F)F)c2ccc(O[C@H]3O[C@H](COP(=O)(O)OP(=O)(O)OC[C@H]4O[C@@H](n5cnc6c(=O)[nH]cnc65)[C@H](O)[C@@H]4O)[C@@H](O)[C@H]3O)cc2o1; assay: purified protein, by the assay type; settings: other: hARH3
# [11] = substrate: O=c1[nH]cnc2c1ncn2[C@@H]1OC(COP(=O)(O)OP(=O)(O)OCC2OC(Oc3ccc([N+](=O)[O-])cc3)[C@H](O)[C@@H]2O)[C@@H](O)[C@H]1O; assay: purified protein, by the assay type; settings: other: hARH3
# T5 sequence (Q86W56 whole entry, the tested form may be a part): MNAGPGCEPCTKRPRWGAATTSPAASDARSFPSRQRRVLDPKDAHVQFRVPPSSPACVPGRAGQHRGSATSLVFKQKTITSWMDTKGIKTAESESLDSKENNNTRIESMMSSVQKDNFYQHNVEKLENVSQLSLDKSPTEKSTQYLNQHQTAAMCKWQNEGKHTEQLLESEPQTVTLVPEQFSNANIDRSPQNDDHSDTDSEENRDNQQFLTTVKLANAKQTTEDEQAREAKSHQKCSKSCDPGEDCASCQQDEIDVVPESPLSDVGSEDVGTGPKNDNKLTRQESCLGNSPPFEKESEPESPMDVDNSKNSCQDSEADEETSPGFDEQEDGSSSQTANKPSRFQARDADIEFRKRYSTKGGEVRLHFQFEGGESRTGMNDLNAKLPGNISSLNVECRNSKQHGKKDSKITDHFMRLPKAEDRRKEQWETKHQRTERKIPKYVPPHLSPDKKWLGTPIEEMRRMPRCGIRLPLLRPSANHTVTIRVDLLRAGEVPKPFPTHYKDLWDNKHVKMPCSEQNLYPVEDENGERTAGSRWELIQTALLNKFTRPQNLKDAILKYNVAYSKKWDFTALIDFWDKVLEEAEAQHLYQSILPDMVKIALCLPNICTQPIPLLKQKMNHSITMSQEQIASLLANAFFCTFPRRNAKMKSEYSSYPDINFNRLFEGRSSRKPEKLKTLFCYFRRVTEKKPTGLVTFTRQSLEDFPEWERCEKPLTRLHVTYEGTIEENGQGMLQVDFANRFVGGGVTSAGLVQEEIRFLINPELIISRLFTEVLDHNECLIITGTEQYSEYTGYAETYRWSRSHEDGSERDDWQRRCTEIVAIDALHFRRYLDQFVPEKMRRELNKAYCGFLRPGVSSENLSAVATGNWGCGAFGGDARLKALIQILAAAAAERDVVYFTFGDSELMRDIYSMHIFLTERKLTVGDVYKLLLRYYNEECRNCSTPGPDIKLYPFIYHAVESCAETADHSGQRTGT
# T4 sequence (Q86W56 whole entry, the tested form may be a part): as above
molecule,measurement,setting,value
Nc1ncnc2c1ncn2[C@@H]1O[C@H](COP(=O)(O)OP(=O)(O)OC[C@H]2O[C@H](Oc3ccc4c(C(F)(F)F)cc(=O)oc4c3)[C@H](O)[C@@H]2O)[C@@H](O)[C@H]1O [TFMU-ADPr],Vmax,[1]; hARH3,1.61 ± 0.02 µmol/min/mg
same,Vmax,[2],0.84 ± 0.05 µmol/min/mg
same,pKa of the leaving group,[3],7.26
same,Vmax,T. thermophila PARG,28.6 ± 0.6 µmol/min/mg
same,effect of ARH3 knockout on substrate hydrolysis,ARH3 [4],only partially decreased
Nc1ncnc2c1ncn2[C@@H]1O[C@H](COP(=O)(O)OP(=O)(O)OC[C@H]2NC[C@H](O)[C@@H]2O)[C@@H](O)[C@H]1O [ADP-HPD],inhibition of PARG,PARG [5],inhibits both PARG and ARH3
O=c1[nH]cnc2c1ncn2[C@@H]1OC(COP(=O)(O)OP(=O)(O)OCC2OC(Oc3ccc([N+](=O)[O-])cc3)[C@H](O)[C@@H]2O)[C@@H](O)[C@H]1O (stereo partly shown) [pNP-IDPr],Km,T. thermophila PARG,> 1500 µM
PDD00017273 [reference compound],inhibition of TFMU-ADPr hydrolysis,"PARG [6]; ARH3−/− U2OS cell lysate, 200 μM TFMU-ADPr",completely abolished
"N=C(NCCCC(N)C(=O)O)NC1OC(COP(=O)(O)OP(=O)(O)OCC2OC(n3cnc4c(N)ncnc43)C(O)C2O)C(O)C1O (stereo not shown) [ADPr-Arg, ADP-ribosyl arginine]",Ki,ARH3 [7],18 ± 2 nM
same,inhibition of PARG,PARG [5],markedly reduced activity against PARG
O=c1cc(C(F)(F)F)c2ccc(O[C@H]3O[C@H](COP(=O)(O)OP(=O)(O)OC[C@H]4O[C@@H](n5cnc6c(=O)[nH]cnc65)[C@H](O)[C@@H]4O)[C@@H](O)[C@H]3O)cc2o1 [TFMU-IDPr],selectivity for processing by ARH3 over PARG,"[1]; human ARH3 over human PARG, FIG. 2C",confirmed
same,Km,[2],> 1500 µM
same,substrate hydrolysis in presence of PARG inhibitor PDD00017273,"PARG [6]; U2OS cell lysate, 200 μM TFMU-IDPr",unaffected
same,ARH3 Activity,ARH3 [8],153 ± 38 milli-units/min/μg
same,Km,T. thermophila PARG,> 1500 µM
same,ARH3 Activity,ARH3 [9]; A549 cell lysate,67 ± 23 milli-units/min/μg
same,ARH3 Activity,ARH3 [9]; D54 cell lysate,147 ± 34 milli-units/min/μg
same,ARH3 Activity,ARH3 [9]; Daudi cell lysate,27 ± 35 milli-units/min/μg
same,ARH3 Activity,ARH3 [9]; HCC38 cell lysate,100 ± 19 milli-units/min/μg
same,ARH3 Activity,ARH3 [9]; HCC1937 cell lysate,76 ± 4 milli-units/min/μg
same,ARH3 Activity,ARH3 [9]; HCT-116 cell lysate,173 ± 17 milli-units/min/μg
same,ARH3 Activity,ARH3 [9]; HEK cell lysate,192 ± 20 milli-units/min/μg
same,ARH3 Activity,ARH3 [9]; HFF-1 cell lysate,105 ± 20 milli-units/min/μg
same,ARH3 Activity,ARH3 [9]; HeLa cell lysate,159 ± 18 milli-units/min/μg
same,ARH3 Activity,ARH3 [9]; HepG2 cell lysate,215 ± 19 milli-units/min/μg
same,ARH3 Activity,ARH3 [9]; Hs578t cell lysate,170 ± 34 milli-units/min/μg
same,ARH3 Activity,ARH3 [9]; Jurkat cell lysate,36 ± 7 milli-units/min/μg
same,ARH3 Activity,ARH3 [9]; MCF 7 cell lysate,92 ± 40 milli-units/min/μg
same,ARH3 Activity,ARH3 [9]; MCF10A cell lysate (grown with cholera toxin),−5 ± 12 milli-units/min/μg
same,ARH3 Activity,ARH3 [9]; MIA PaCa-2 cell lysate,157 ± 25 milli-units/min/μg
same,ARH3 Activity,ARH3 [9]; SK-MEL-5 cell lysate,87 ± 13 milli-units/min/μg
same,ARH3 Activity,ARH3 [9]; T98G cell lysate,139 ± 7 milli-units/min/μg
same,ARH3 Activity,ARH3 [9]; U87 cell lysate,290 ± 52 milli-units/min/μg
same,ARH3 Activity,ARH3 [9]; U937 cell lysate,137 ± 34 milli-units/min/μg
same,effect of ARH3 knockout on substrate hydrolysis,ARH3 [4],near complete loss
Nc1ncnc2c1ncn2[C@@H]1O[C@H](COP(=O)(O)OP(=O)(O)OC[C@H]2O[C@@H](Oc3ccc([N+](=O)[O-])cc3)[C@H](O)[C@@H]2O)[C@@H](O)[C@H]1O [pNP-ADPr],Km,[1]; hARH3,3.2 ± 0.6 µM
same,Vmax,[1]; hARH3,1.7 ± 0.1 µmol/min/mg
same,"stereoselectivity of hydrolysis, α versus β anomer","[1]; hARH3, FIG. 5D",selectively hydrolyzed the α anomer of pNP-ADPr over the β anomer
same,pKa of the leaving group,[3],7.15
same,Km,T. thermophila PARG,210 ± 10 µM
same,Vmax,T. thermophila PARG,16.9 ± 0.5 µmol/min/mg
same,"stereoselectivity of hydrolysis, α versus β anomer",T. thermophila PARG; FIG. 5C,selectively hydrolyzed the α anomer of pNP-ADPr over the β anomer
B1,Km,[10],312 ± 30 µM
same,Vmax,[10],1.79 µmol/min/mg
same,Km,[11],410 ± 20 µM
same,Vmax,[11],5.2 µmol/min/mg
